Experimental data taken from PMC5218480 (PLoS ONE, 2017).

System: MV-4-11 cells
Assay: Gene expression microarray analysis (Affymetrix PrimeView) and GSEA
Type: cell-based, human
Parameters: RFU PODN (11730768_x_at) / Fold change /veh PODN (11730768_x_at) / RFU LINC00158 (11744669_a_at) / Fold change /veh LINC00158 (11744669_a_at) / RFU DUSP10 (11751237_a_at) / Fold change /veh DUSP10 (11751237_a_at) / RFU ID3 (11757404_x_at) / Fold change /veh ID3 (11757404_x_at) / RFU PLEKHG5 (11737974_s_at) / Fold change /veh PLEKHG5 (11737974_s_at) / RFU LRRC4B (11730491_at) / Fold change /veh LRRC4B (11730491_at) / RFU GIMAP4 (11747438_a_at) / Fold change /veh GIMAP4 (11747438_a_at) / RFU KRT8 (11758183_x_at) / Fold change /veh KRT8 (11758183_x_at) / RFU CNN1 (11734310_a_at) / Fold change /veh CNN1 (11734310_a_at) / RFU VPS37D (11726825_at) / Fold change /veh VPS37D (11726825_at) / RFU C10orf10 (11716522_x_at) / Fold change /veh C10orf10 (11716522_x_at) / RFU KIR2DL2 /// KIR2DL4 /// KIR2DL5A /// KIR2DL5B /// KIR2DS1 /// KIR2DS2 /// KIR2DS3 /// KIR2DS4 /// KIR3DL3 /// KIR3DL3 /// KIR3DS1 (11738374_at) / Fold change /veh KIR2DL2 /// KIR2DL4 /// KIR2DL5A /// KIR2DL5B /// KIR2DS1 /// KIR2DS2 /// KIR2DS3 /// KIR2DS4 /// KIR3DL3 /// KIR3DL3 /// KIR3DS1 (11738374_at) / RFU C1QL1 (11718748_at) / Fold change /veh C1QL1 (11718748_at) / RFU TMPRSS4 (11747572_a_at) / Fold change /veh TMPRSS4 (11747572_a_at) / RFU HAMP (11756126_x_at) / Fold change /veh HAMP (11756126_x_at) / RFU RNFT2 (11725882_a_at) / Fold change /veh RNFT2 (11725882_a_at) / RFU NR4A2 (11747474_a_at) / Fold change /veh NR4A2 (11747474_a_at) / RFU ABCC12 (11746883_a_at) / Fold change /veh ABCC12 (11746883_a_at) / RFU TMEM136 (11760407_x_at) / Fold change /veh TMEM136 (11760407_x_at) / RFU CLDN22 /// WWC2 (11732394_at) / Fold change /veh CLDN22 /// WWC2 (11732394_at) / RFU HLA-DPB1 (11760878_x_at) / Fold change /veh HLA-DPB1 (11760878_x_at) / RFU SPINT1 (11716480_a_at) / Fold change /veh SPINT1 (11716480_a_at) / RFU GAP43 (11754022_s_at) / Fold change /veh GAP43 (11754022_s_at) / RFU A4GNT (11735810_at) / Fold change /veh A4GNT (11735810_at) / RFU PRB3 (11715151_x_at) / Fold change /veh PRB3 (11715151_x_at) / RFU TUBB4B (11761932_at) / Fold change /veh TUBB4B (11761932_at) / RFU CAPN14 (11732068_a_at) / Fold change /veh CAPN14 (11732068_a_at) / RFU TMCC2 (11721928_a_at) / Fold change /veh TMCC2 (11721928_a_at) / RFU IRGQ (11745062_a_at) / Fold change /veh IRGQ (11745062_a_at) / RFU FAM174B (11720279_a_at) / Fold change /veh FAM174B (11720279_a_at) / RFU TMPRSS4 (11748680_a_at) / Fold change /veh TMPRSS4 (11748680_a_at) / RFU FAM212B (11763350_a_at) / Fold change /veh FAM212B (11763350_a_at) / RFU PLEKHG5 (11743358_a_at) / Fold change /veh PLEKHG5 (11743358_a_at) / RFU ZSCAN30 (11745921_a_at) / Fold change /veh ZSCAN30 (11745921_a_at) / RFU CMKLR1 (11741424_a_at) / Fold change /veh CMKLR1 (11741424_a_at) / RFU LOC101060620 /// MAPK8IP1 (11723275_at) / Fold change /veh LOC101060620 /// MAPK8IP1 (11723275_at) / RFU SPTSSB (11747773_x_at) / Fold change /veh SPTSSB (11747773_x_at) / RFU PRSS12 (11739890_at) / Fold change /veh PRSS12 (11739890_at) / RFU BIN1 (11741810_x_at) / Fold change /veh BIN1 (11741810_x_at) / RFU WNT11 (11732464_a_at) / Fold change /veh WNT11 (11732464_a_at) / RFU C10orf10 (11716521_a_at) / Fold change /veh C10orf10 (11716521_a_at) / RFU C5orf56 (11738089_at) / Fold change /veh C5orf56 (11738089_at) / RFU CYB561 (11721691_x_at) / Fold change /veh CYB561 (11721691_x_at) / RFU ANKRD19P (11752326_a_at) / Fold change /veh ANKRD19P (11752326_a_at) / RFU OR2T12 /// OR2T33 /// OR2T8 (11738714_s_at) / Fold change /veh OR2T12 /// OR2T33 /// OR2T8 (11738714_s_at) / RFU VCAN (11748164_a_at) / Fold change /veh VCAN (11748164_a_at) / RFU JSRP1 (11732532_at) / Fold change /veh JSRP1 (11732532_at) / RFU KRTAP10-11 (11738290_x_at) / Fold change /veh KRTAP10-11 (11738290_x_at) / RFU MYO3A (11730013_a_at) / Fold change /veh MYO3A (11730013_a_at) / RFU EBF3 (11725865_a_at) / Fold change /veh EBF3 (11725865_a_at) / RFU CAMK2N1 (11719241_x_at) / Fold change /veh CAMK2N1 (11719241_x_at) / RFU C5orf56 (11738088_a_at) / Fold change /veh C5orf56 (11738088_a_at) / RFU OLFML3 (11715873_a_at) / Fold change /veh OLFML3 (11715873_a_at) / RFU LOC100653217 /// NTM (11731650_a_at) / Fold change /veh LOC100653217 /// NTM (11731650_a_at) / RFU MAPK11 (11762145_a_at) / Fold change /veh MAPK11 (11762145_a_at) / RFU FIZ1 (11724087_x_at) / Fold change /veh FIZ1 (11724087_x_at) / RFU OASL (11726364_x_at) / Fold change /veh OASL (11726364_x_at) / RFU SOX15 (11748057_x_at) / Fold change /veh SOX15 (11748057_x_at) / RFU CD79A (11719716_a_at) / Fold change /veh CD79A (11719716_a_at) / RFU HIST1H1D (11736915_at) / Fold change /veh HIST1H1D (11736915_at) / RFU CASKIN2 (11723855_a_at) / Fold change /veh CASKIN2 (11723855_a_at) / RFU LOC730098 (11760151_x_at) / Fold change /veh LOC730098 (11760151_x_at) / RFU OR4N2 (11742367_at) / Fold change /veh OR4N2 (11742367_at) / RFU PRRT2 (11749266_a_at) / Fold change /veh PRRT2 (11749266_a_at) / RFU SNX32 (11753110_a_at) / Fold change /veh SNX32 (11753110_a_at) / RFU CDHR5 (11726645_a_at) / Fold change /veh CDHR5 (11726645_a_at) / RFU RCAN1 (11760418_a_at) / Fold change /veh RCAN1 (11760418_a_at) / RFU FAM167A (11723789_a_at) / Fold change /veh FAM167A (11723789_a_at) / RFU FAM26E (11764081_at) / Fold change /veh FAM26E (11764081_at) / RFU ISYNA1 (11749810_s_at) / Fold change /veh ISYNA1 (11749810_s_at) / RFU ACY1 (11761880_at) / Fold change /veh ACY1 (11761880_at) / RFU 11764098_at / Fold change /veh 11764098_at / RFU SAMD14 (11745864_x_at) / Fold change /veh SAMD14 (11745864_x_at) / RFU NPB (11741838_a_at) / Fold change /veh NPB (11741838_a_at) / RFU TMPRSS6 (11731388_a_at) / Fold change /veh TMPRSS6 (11731388_a_at) / RFU KRTAP10-2 (11738614_at) / Fold change /veh KRTAP10-2 (11738614_at) / RFU ARHGAP8 /// PRR5-ARHGAP8 (11727945_x_at) / Fold change /veh ARHGAP8 /// PRR5-ARHGAP8 (11727945_x_at) / RFU KRTAP5-7 /// NADSYN1 (11734609_at) / Fold change /veh KRTAP5-7 /// NADSYN1 (11734609_at) / RFU RASL12 (11751679_a_at) / Fold change /veh RASL12 (11751679_a_at) / RFU CDKN2B (11736163_a_at) / Fold change /veh CDKN2B (11736163_a_at) / RFU PRF1 (11729649_at) / Fold change /veh PRF1 (11729649_at) / RFU, ZNF638 /// ZNF638-IT1 / Fold change vs veh, ZNF638 /// ZNF638-IT1 / RFU, PANK3 / Fold change vs veh, PANK3 / RFU, SH3YL1 / Fold change vs veh, SH3YL1 / RFU, ZEB2 / Fold change vs veh, ZEB2 / RFU, NRIP1 / Fold change vs veh, NRIP1 / RFU, PTTG1IP / Fold change vs veh, PTTG1IP / RFU, CAPN2 / Fold change vs veh, CAPN2 / RFU, MED14 / Fold change vs veh, MED14 / RFU, SNORA58 / Fold change vs veh, SNORA58 / RFU, C1orf63 / Fold change vs veh, C1orf63 / RFU, LRRFIP1 / Fold change vs veh, LRRFIP1 / RFU, NDUFAF7 / Fold change vs veh, NDUFAF7 / RFU, SLC12A2 / Fold change vs veh, SLC12A2 / RFU, IBTK / Fold change vs veh, IBTK / RFU, ESF1 / Fold change vs veh, ESF1 / Fold change vs veh, TMEM50B / RFU, TAOK1 / Fold change vs veh, TAOK1 / RFU, ACBD3 / Fold change vs veh, ACBD3 / RFU, TMA16 / Fold change vs veh, TMA16 / RFU, RWDD3 / Fold change vs veh, RWDD3 / RFU, BCAT1 / Fold change vs veh, BCAT1 / RFU, EDEM3 / Fold change vs veh, EDEM3 / RFU, TMEM33 / Fold change vs veh, TMEM33 / RFU, WDR75 / Fold change vs veh, WDR75 / RFU, AHCTF1 / Fold change vs veh, AHCTF1 / RFU, TFRC / Fold change vs veh, TFRC / RFU, ZDHHC17 / Fold change vs veh, ZDHHC17 / RFU, NOM1 / Fold change vs veh, NOM1 / RFU, ARL8B / Fold change vs veh, ARL8B / RFU, ZBTB11 / Fold change vs veh, ZBTB11 / RFU, TAMM41 / Fold change vs veh, TAMM41 / RFU, KIAA1704 /// LOC100996395 / Fold change vs veh, KIAA1704 /// LOC100996395 / RFU, ING1 / Fold change vs veh, ING1 / RFU, TRMT61B / Fold change vs veh, TRMT61B / RFU, FUBP3 / Fold change vs veh, FUBP3 / RFU, TP53 / Fold change vs veh, TP53 / RFU, TNKS2 / Fold change vs veh, TNKS2 / RFU, ZFP14 / Fold change vs veh, ZFP14 / RFU, ACTR2 / Fold change vs veh, ACTR2 / RFU, PPP3R1 / Fold change vs veh, PPP3R1 / RFU, PIK3R1 / Fold change vs veh, PIK3R1 / RFU, HNRNPA1 / Fold change vs veh, HNRNPA1 / RFU, RNF170 / Fold change vs veh, RNF170 / RFU, ZNF28 / Fold change vs veh, ZNF28 / RFU, RNGTT / Fold change vs veh, RNGTT / RFU, OGT / Fold change vs veh, OGT / RFU, BRD1 / Fold change vs veh, BRD1 / RFU, MARS / Fold change vs veh, MARS / RFU, ZNF655 / Fold change vs veh, ZNF655 / RFU, FAHD1 / Fold change vs veh, FAHD1 / RFU, BDP1 / Fold change vs veh, BDP1 / RFU, LRRCC1 / Fold change vs veh, LRRCC1 / RFU, ARID1A / Fold change vs veh, ARID1A / RFU, ZNF146 / Fold change vs veh, ZNF146 / RFU, ZNF330 / Fold change vs veh, ZNF330 / RFU, GPN3 / Fold change vs veh, GPN3 / RFU, C9orf123 / Fold change vs veh, C9orf123 / RFU, N4BP2L2 / Fold change vs veh, N4BP2L2 / RFU, ARFIP1 / Fold change vs veh, ARFIP1 / RFU, FAM179B / Fold change vs veh, FAM179B / RFU, BCL10 / Fold change vs veh, BCL10 / RFU, UHRF1BP1L / Fold change vs veh, UHRF1BP1L / RFU, BET1 / Fold change vs veh, BET1 / RFU, CNOT2 / Fold change vs veh, CNOT2 / RFU, ZNF268 / Fold change vs veh, ZNF268 / Fold change vs veh, ZNF507 / RFU, DGCR2 / Fold change vs veh, DGCR2 / RFU, WDSUB1 / Fold change vs veh, WDSUB1 / Fold change vs veh, HSP90B1 /// MIR3652 / RFU, ADSS / Fold change vs veh, ADSS / RFU, GK / Fold change vs veh, GK / RFU, ZNF148 / Fold change vs veh, ZNF148 / RFU, TAF9 / Fold change vs veh, TAF9 / RFU, SLC1A5 / Fold change vs veh, SLC1A5 / RFU, SLMO2 / Fold change vs veh, SLMO2 / RFU, ABCC4 / Fold change vs veh, ABCC4 / RFU, LOC101060439 /// RAP1B / Fold change vs veh, LOC101060439 /// RAP1B / RFU, RFX7 / Fold change vs veh, RFX7 / RFU, GTPBP10 / Fold change vs veh, GTPBP10 / RFU, CNEP1R1 / Fold change vs veh, CNEP1R1 / RFU, BIVM-ERCC5 /// ERCC5 / Fold change vs veh, BIVM-ERCC5 /// ERCC5 / RFU, ILF3 / Fold change vs veh, ILF3 / RFU 11762660_at / Fold change /veh 11762660_at / RFU VCAN (11757783_s_at) / Fold change /veh VCAN (11757783_s_at) / RFU DDX43 (11728927_at) / Fold change /veh DDX43 (11728927_at) / RFU KRT8 (11758188_x_at) / Fold change /veh KRT8 (11758188_x_at) / RFU NKD1 (11759106_at) / Fold change /veh NKD1 (11759106_at) / RFU SRD5A1 (11742802_a_at) / Fold change /veh SRD5A1 (11742802_a_at) / RFU TPSAB1 /// TPSB2 (11721975_s_at) / Fold change /veh TPSAB1 /// TPSB2 (11721975_s_at) / RFU GSTM3 (11746129_a_at) / Fold change /veh GSTM3 (11746129_a_at) / RFU IL23R (11737362_x_at) / Fold change /veh IL23R (11737362_x_at) / RFU TMEM51 (11727254_a_at) / Fold change /veh TMEM51 (11727254_a_at) / RFU PIWIL2 (11732686_x_at) / Fold change /veh PIWIL2 (11732686_x_at) / RFU ORM1 (11744905_x_at) / Fold change /veh ORM1 (11744905_x_at) / RFU CCDC152 (11743942_at) / Fold change /veh CCDC152 (11743942_at) / RFU ECM1 (11717891_a_at) / Fold change /veh ECM1 (11717891_a_at) / RFU IL23R (11748794_a_at) / Fold change /veh IL23R (11748794_a_at) / RFU TNFAIP8L3 (11732012_x_at) / Fold change /veh TNFAIP8L3 (11732012_x_at) / RFU MBOAT4 (11741988_at) / Fold change /veh MBOAT4 (11741988_at) / RFU 11764193_at / Fold change /veh 11764193_at / RFU TMEM53 (11763286_at) / Fold change /veh TMEM53 (11763286_at) / RFU MAGEB2 (11727129_at) / Fold change /veh MAGEB2 (11727129_at) / RFU TMEM200A (11744735_a_at) / Fold change /veh TMEM200A (11744735_a_at) / RFU CCDC152 (11751479_a_at) / Fold change /veh CCDC152 (11751479_a_at) / RFU FAM211A (11726209_a_at) / Fold change /veh FAM211A (11726209_a_at) / RFU RGS16 (11746705_a_at) / Fold change /veh RGS16 (11746705_a_at) / RFU VCAN (11755009_s_at) / Fold change /veh VCAN (11755009_s_at) / RFU RHOB (11743442_s_at) / Fold change /veh RHOB (11743442_s_at) / RFU RGS16 (11720943_a_at) / Fold change /veh RGS16 (11720943_a_at) / RFU RGS16 (11720944_at) / Fold change /veh RGS16 (11720944_at) / RFU, VPS4B / Fold change vs veh, VPS4B / RFU, CREB1 / Fold change vs veh, CREB1 / RFU, DNAJC13 / Fold change vs veh, DNAJC13 / RFU, GNAQ / Fold change vs veh, GNAQ / RFU, CDK5R1 / Fold change vs veh, CDK5R1 / RFU, ZRANB3 / Fold change vs veh, ZRANB3 / RFU, CUL4A / Fold change vs veh, CUL4A / RFU, CCNY / Fold change vs veh, CCNY / RFU, UFL1 / Fold change vs veh, UFL1 / RFU, COG3 / Fold change vs veh, COG3 / RFU, DIAPH2 / Fold change vs veh, DIAPH2 / RFU, SKA2 / Fold change vs veh, SKA2 / RFU, AFF3 / Fold change vs veh, AFF3 / RFU, LMF1 / Fold change vs veh, LMF1 / RFU, IPO11 / Fold change vs veh, IPO11 / RFU, DFFB / Fold change vs veh, DFFB / RFU, FOXP1 / Fold change vs veh, FOXP1 / RFU, CARD8 / Fold change vs veh, CARD8 / RFU, STRN3 / Fold change vs veh, STRN3 / RFU, ADK / Fold change vs veh, ADK / RFU, RASSF2 / Fold change vs veh, RASSF2 / RFU, WIPF1 / Fold change vs veh, WIPF1 / RFU, LARP1B / Fold change vs veh, LARP1B / RFU, RASA1 / Fold change vs veh, RASA1 / RFU, RB1 / Fold change vs veh, RB1 / RFU, PPFIA1 / Fold change vs veh, PPFIA1 / RFU, MAT2A / Fold change vs veh, MAT2A / RFU, CCT5 / Fold change vs veh, CCT5 / RFU, WDR92 / Fold change vs veh, WDR92 / RFU, CUX1 / Fold change vs veh, CUX1 / RFU, TTC7A / Fold change vs veh, TTC7A / RFU, TMEM135 / Fold change vs veh, TMEM135 / RFU, DEPTOR / Fold change vs veh, DEPTOR / RFU, CPM / Fold change vs veh, CPM / RFU, DNAJB6 / Fold change vs veh, DNAJB6 / RFU, CACNA2D3 / Fold change vs veh, CACNA2D3 / RFU, DTX4 / Fold change vs veh, DTX4 / RFU, TFCP2 / Fold change vs veh, TFCP2 / RFU, GMCL1 /// GMCL1P1 / Fold change vs veh, GMCL1 /// GMCL1P1 / RFU, AEBP2 / Fold change vs veh, AEBP2 / RFU, SNHG1 /// SNORD22 /// SNORD25 /// SNORD26 /// SNORD27 /// SNORD28 /// SNORD29 /// SNORD31 / Fold change vs veh, SNHG1 /// SNORD22 /// SNORD25 /// SNORD26 /// SNORD27 /// SNORD28 /// SNORD29 /// SNORD31 / Fold change (Aza/veh), C12orf56 (ProbeSet 11735607_a_at) / Fold change (ACY-1035/veh), C12orf56 (ProbeSet 11735607_a_at) / Fold change (Aza/veh), FGFR1OP (ProbeSet 11751329_s_at) / Fold change (ACY-1035/veh), FGFR1OP (ProbeSet 11751329_s_at) / Fold change (Aza/veh), VPS36 (ProbeSet 11739960_a_at) / Fold change (ACY-1035/veh), VPS36 (ProbeSet 11739960_a_at) / RFU SYPL1 (11715823_x_at) / Fold change /veh SYPL1 (11715823_x_at) / RFU IGFBP7 (11715501_s_at) / Fold change /veh IGFBP7 (11715501_s_at) / RFU REEP3 (11722064_at) / Fold change /veh REEP3 (11722064_at) / RFU IGLL1 (11728026_x_at) / Fold change /veh IGLL1 (11728026_x_at): dose or concentration left out as unconfirmed
Details: ProbeSet 11739696_s_at; LIST D

Nc1ncn([C@@H]2O[C@H](CO)[C@@H](O)[C@H]2O)c(=O)n1 [azacitidine]
Fold change vs veh, AFF3: 0.52
